Source: ChEMBL document CHEMBL1147638, “(+/-)-cis-(6-Ethyl-tetrahydropyran-2-yl)-formic acid: a novel substance with antinociceptive properties” (2004)

Tests used:
Mus musculus [1] = assay: Increase in analgesic activity of compound after oral administration in mouse when compared with morphine in tail flick test; format: functional
Mus musculus [2] = assay: Increase in antinociceptive activity in mouse after oral administration at the dose of 1 mg/kg in tail flick test; format: functional

**Q.** Which results are given for `CC[C@@H]1CCC[C@H](C(=O)O)O1`?
**A.** Increase (Mus musculus [1]): 55%; Increase (Mus musculus [2]): 40%
